According to patent US12533426B2, “Ultrafine nanoparticles comprising a functionalized polyorganosiloxane matrix and including metal complexes; method for obtaining same and uses thereof in medical imaging and/or therapy” (NANOH, priority 2010, dated 2026):

Assay: Relaxometry of the particles (Bruker Minispec MQ60 NMR analyser, 1.4 T)
Assay type: physicochemical
Details: at 50 MHz; gadolinium quantities measured by ICP
Method: The relaxivity r1 considered here is a relaxivity per M^n+ ion (for example gadolinium). r1 is found from the following formula: 1/T1=[1/T1]water+r1[M^n+] […]
Moreover, the relaxivity of the particles from Example 15 was measured by relaxometry, the actual quantities of gadolinium being measured by ICP, on a Varian 710-ES instrument.

## O=C([O-])CN1CCN(CC(=O)[O-])CCN(CC(=O)[O-])CCN(CC(=O)[O-])CC1.[Gd+3] [Gd-DOTA]
  relaxivity r1 (of the gadolinium species): 3.8 s^−1 mM^−1 (of gadolinium)^−1.s^−1
